# Results: ChEMBL document CHEMBL1201862, “PubChem BioAssay data set” (2004)
#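 In this assay, cells in 96-well plates receive the compound at five concentrations for 48 hours. Endpoints are linearly interpolated between the surrounding concentrations. GI50 is the concentration that inhibits growth by half.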 The source made the active and inactive calls. Cut-off read from the data, not from the text of the source: active = GI50 up to about 1.1 µM and inactive = higher.
# What was measured:
# Assay in all cases: inhibition of tumour cell growth, NCI panel, 48 h
# DLD-1 = system: DLD-1
# DMS-273 = system: DMS-273
# HOP-18 = system: HOP-18
# KM-20L2 = system: KM-20L2
# LXFL 529 = system: LXFL 529
# M19-MEL = system: M19-MEL
# RXF 631 = system: RXF 631
# XF498 = system: XF498
# DMS-114 = system: DMS-114
SMILES,GI50 (DLD-1),GI50 (DMS-273),GI50 (HOP-18),GI50 (KM-20L2),GI50 (LXFL 529),GI50 (M19-MEL),GI50 (RXF 631),GI50 (XF498),GI50 (DMS-114)
CC(CCc1ccc2c(c1)c(N)c1ccc(N)cc1[n+]2[O-])CC(C)(C)C (centres undefined),1.82 µM (inactive),2.21 µM (inactive),1.93 µM (inactive),1.37 µM (inactive),1.53 µM (inactive),1.44 µM (inactive),1.65 µM (inactive),1.16 µM (inactive),–
c1ccc2c(c1)[nH]c1c[nH]c3c4cccnc4nc-3c12,15.6 µM (inactive),–,18.6 µM (inactive),–,18.5 µM (inactive),16.9 µM (inactive),–,–,19 µM (inactive)
CCc1ccccc1NC(=O)CC1NC(=O)CS1 (centres undefined),> 100 µM (inactive),> 100 µM (inactive),> 100 µM (inactive),> 100 µM (inactive),> 100 µM (inactive),> 100 µM (inactive),> 100 µM (inactive),> 100 µM (inactive),> 100 µM (inactive)
O=c1cc(CO)oc2c3c(cc(O)c12)OCC(COC1OC(CO)C(O)C(O)C1O)=CC3 (centres undefined),> 100 µM (inactive),> 100 µM (inactive),> 100 µM (inactive),> 100 µM (inactive),> 100 µM (inactive),> 100 µM (inactive),–,–,> 100 µM (inactive)
NC(=S)N/N=C1\C(=O)N(CCc2ccccc2)C(=O)C1C(=O)NCCc1ccccc1 (centres undefined),–,> 100 µM (inactive),> 100 µM (inactive),> 100 µM (inactive),> 100 µM (inactive),> 100 µM (inactive),–,–,74.8 µM (inactive)
CCOC(=O)/C(O)=C(/c1n[nH]c(=O)c2ccccc12)[N+](=O)[O-],> 100 µM (inactive),> 100 µM (inactive),> 100 µM (inactive),> 100 µM (inactive),> 100 µM (inactive),> 100 µM (inactive),–,–,> 100 µM (inactive)
Cc1ccc(/C=C2\CCCCC2=O)cc1,49.2 µM (inactive),40.1 µM (inactive),24 µM (inactive),> 100 µM (inactive),94.6 µM (inactive),> 100 µM (inactive),> 100 µM (inactive),> 100 µM (inactive),43.6 µM (inactive)
OCCNCCOc1ccc(/C(=C(/Cl)c2ccccc2)c2ccccc2)cc1,12.1 µM (inactive),–,19.3 µM (inactive),2.47 µM (inactive),6.92 µM (inactive),10.9 µM (inactive),–,2.9 µM (inactive),15.2 µM (inactive)
c1ccc(C(c2ccccc2)c2ccccn2)cc1,> 100 µM (inactive),> 100 µM (inactive),> 100 µM (inactive),> 100 µM (inactive),–,> 100 µM (inactive),> 100 µM (inactive),> 100 µM (inactive),> 100 µM (inactive)
O=c1c2ccccc2c2nc3ccccc3nc2n1C1CCCCC1,–,> 100 µM (inactive),–,> 100 µM (inactive),> 100 µM (inactive),> 100 µM (inactive),–,–,> 100 µM (inactive)
CCO/C=C1\N=C(c2ccc(Cl)c(Cl)c2)OC1=O,> 100 µM (inactive),> 100 µM (inactive),–,> 100 µM (inactive),> 100 µM (inactive),> 100 µM (inactive),–,> 100 µM (inactive),28.4 µM (inactive)
CCCOP1(=O)C=C(C)C(Cl)=C(C)C1 (centres undefined),22.8 µM (inactive),14.6 µM (inactive),29.4 µM (inactive),29.3 µM (inactive),20.7 µM (inactive),21 µM (inactive),37.1 µM (inactive),16.5 µM (inactive),19.7 µM (inactive)
C=C1C(=O)OC2/C=C(\C)C(OC(C)=O)C3OC3C(C)(O)CC(OC(=O)/C(C)=C/C)C12 (centres undefined),–,24.5 µM (inactive),11.3 µM (inactive),4.46 µM (inactive),2.44 µM (inactive),8.49 µM (inactive),–,6.87 µM (inactive),5.45 µM (inactive)
Cc1cc2c(cc1C)[n+]([O-])c(C(=O)/C=C/c1ccc3c(c1)OCO3)c(C)[n+]2[O-],> 100 µM (inactive),27 µM (inactive),> 100 µM (inactive),> 100 µM (inactive),–,> 100 µM (inactive),10.1 µM (inactive),27 µM (inactive),33.1 µM (inactive)
C[C@]12CC[C@H](O)CC1CCC[C@@H]2O (some centres undefined),> 100 µM (inactive),> 100 µM (inactive),–,–,> 100 µM (inactive),–,> 100 µM (inactive),> 100 µM (inactive),> 100 µM (inactive)
CCOC(=O)CN(c1ccccc1)c1nc(=[N+](C)C)ss1,6.93 µM (inactive),0.318 µM (active),53 µM (inactive),54.7 µM (inactive),–,0.303 µM (active),–,–,0.309 µM (active)
CC(=O)O[C@H]1C(=O)[C@@]2(C)C([C@H](OC(=O)c3ccccc3)[C@]3(O)C[C@H](OC(=O)[C@H](O)[C@H](NC(=O)c4ccccc4)c4ccc(Cl)cc4)C(C)=C1C3(C)C)C1(OC(C)=O)CO[C@@H]1C[C@@H]2O (some centres undefined),0.00233 µM (active),0.000111 µM (active),0.0794 µM (active),0.00103 µM (active),0.00191 µM (active),0.000302 µM (active),0.104 µM (active),0.00728 µM (active),< 0.0001 µM (active)
CC[C@@]1(OP(=O)(O)O)C(=O)OCc2c1cc1n(c2=O)Cc2cc3ccccc3nc2-1,1.11 µM (active),0.0513 µM (active),1.08 µM (active),1 µM (active),1.73 µM (inactive),1.01 µM (active),–,0.221 µM (active),0.0485 µM (active)
CC1(C)c2ccccc2N2C(c3ccccc3)=NOC21C (centres undefined),> 100 µM (inactive),> 100 µM (inactive),> 100 µM (inactive),> 100 µM (inactive),> 100 µM (inactive),> 100 µM (inactive),> 100 µM (inactive),–,> 100 µM (inactive)
Cc1cc(Cl)ccc1NC(=O)C1C(=O)N(c2ccc(Cl)cc2C)C(=O)/C1=N\N (centres undefined),–,–,40.6 µM (inactive),36 µM (inactive),44 µM (inactive),43.2 µM (inactive),–,65 µM (inactive),30.1 µM (inactive)
COC(=O)C(=O)C(C(=O)C(=O)Nc1cc([N+](=O)[O-])ccc1C#N)c1nc2ccccc2nc1O (centres undefined),> 100 µM (inactive),> 100 µM (inactive),> 100 µM (inactive),> 100 µM (inactive),> 100 µM (inactive),> 100 µM (inactive),> 100 µM (inactive),> 100 µM (inactive),> 100 µM (inactive)
CC1=C(C(=O)Nc2ccccc2)C(c2ccc(C(C)C)cc2)C(C(=O)Nc2ccccc2)=C(C)N1,17.5 µM (inactive),–,19.1 µM (inactive),15.2 µM (inactive),16.7 µM (inactive),15.6 µM (inactive),18.2 µM (inactive),13.1 µM (inactive),7.26 µM (inactive)
CCC1(OC(=O)CN2CCN(CCO)CC2)C(=O)OCc2c1cc1n(c2=O)Cc2cc3ccccc3nc2-1 (centres undefined),6.62 µM (inactive),0.0652 µM (active),0.76 µM (active),1.22 µM (inactive),6.05 µM (inactive),0.789 µM (active),–,2.16 µM (inactive),0.558 µM (active)
COc1cc(Cl)c2c3c(c(C(=O)c4ccccc4)oc13)CCC2,> 100 µM (inactive),69.7 µM (inactive),> 100 µM (inactive),> 100 µM (inactive),> 100 µM (inactive),> 100 µM (inactive),–,> 100 µM (inactive),> 100 µM (inactive)
Cc1c2n(c(=O)[nH]c1=O)C1OC(CO)C(N=[N+]=[N-])C1O2 (centres undefined),> 100 µM (inactive),> 100 µM (inactive),–,> 100 µM (inactive),> 100 µM (inactive),> 100 µM (inactive),–,–,> 100 µM (inactive)
